{"source": "patent US12161666B2", "about": "“Composition comprising cinnamaldehyde and zinc to improve swallowing” (SOCIÉTÉ DES PRODUITS NESTLÉ S.A., priority 2014, dated 2024)", "key": {"[1]": {"target": "T1, hTRPA1 expressed in CHO cells (Homo sapiens, UniProt O75762)", "T1 construct": "expressed in transfected cells; host or cells: CHO cells", "T1 sequence (O75762 whole entry)": "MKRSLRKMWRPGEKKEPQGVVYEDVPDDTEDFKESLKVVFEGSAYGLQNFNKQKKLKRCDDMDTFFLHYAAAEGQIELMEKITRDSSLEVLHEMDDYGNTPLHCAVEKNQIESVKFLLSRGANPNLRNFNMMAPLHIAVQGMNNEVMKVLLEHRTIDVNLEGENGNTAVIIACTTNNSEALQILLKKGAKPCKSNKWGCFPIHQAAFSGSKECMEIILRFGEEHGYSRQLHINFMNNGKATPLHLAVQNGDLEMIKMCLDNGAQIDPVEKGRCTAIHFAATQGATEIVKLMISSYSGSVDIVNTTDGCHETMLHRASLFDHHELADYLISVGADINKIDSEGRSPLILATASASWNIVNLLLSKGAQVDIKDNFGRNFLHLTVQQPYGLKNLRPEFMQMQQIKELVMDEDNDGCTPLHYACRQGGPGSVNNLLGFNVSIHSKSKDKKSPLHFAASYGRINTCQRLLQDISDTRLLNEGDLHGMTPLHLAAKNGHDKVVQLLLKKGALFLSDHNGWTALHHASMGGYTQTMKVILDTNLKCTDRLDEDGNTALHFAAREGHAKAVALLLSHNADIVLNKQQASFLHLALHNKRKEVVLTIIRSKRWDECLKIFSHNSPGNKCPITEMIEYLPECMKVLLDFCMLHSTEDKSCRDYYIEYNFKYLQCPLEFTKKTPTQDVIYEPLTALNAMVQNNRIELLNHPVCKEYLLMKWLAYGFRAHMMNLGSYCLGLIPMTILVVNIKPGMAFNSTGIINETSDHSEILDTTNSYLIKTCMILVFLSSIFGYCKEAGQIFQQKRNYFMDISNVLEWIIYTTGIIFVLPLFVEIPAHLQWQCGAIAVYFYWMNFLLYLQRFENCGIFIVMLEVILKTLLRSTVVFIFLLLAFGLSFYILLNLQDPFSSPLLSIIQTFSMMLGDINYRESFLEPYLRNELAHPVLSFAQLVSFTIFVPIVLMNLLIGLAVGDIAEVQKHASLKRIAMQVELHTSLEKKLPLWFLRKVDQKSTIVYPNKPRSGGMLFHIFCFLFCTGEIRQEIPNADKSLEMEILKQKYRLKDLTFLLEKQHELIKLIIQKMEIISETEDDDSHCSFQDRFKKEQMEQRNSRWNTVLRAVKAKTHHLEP", "test": "in vitro activity of hTRPA1 expressed in CHO cells, intracellular calcium measured with a fluorescent dye", "type": "cell-based", "design": "efficacy on hTRPA1 according to dose-response curve: dose or concentration left out as unconfirmed", "description": "The in vitro activity of hTRPA1 expressed in CHO cells was measured for 10 μM cinnamaldehyde and 0.3 μM zinc individually, as well as the combination."}, "TRPA1": {"target": "TRPA1 (Homo sapiens, UniProt O75762)", "sequence (O75762 whole entry, species assumed)": "as the sequence (O75762 whole entry) above", "details": "read-out: EC50 of TRPA1 activation; cited from earlier work"}, "TRPV1": {"target": "TRPV1 (Homo sapiens, UniProt Q8NER1)", "sequence (Q8NER1 whole entry, species assumed)": "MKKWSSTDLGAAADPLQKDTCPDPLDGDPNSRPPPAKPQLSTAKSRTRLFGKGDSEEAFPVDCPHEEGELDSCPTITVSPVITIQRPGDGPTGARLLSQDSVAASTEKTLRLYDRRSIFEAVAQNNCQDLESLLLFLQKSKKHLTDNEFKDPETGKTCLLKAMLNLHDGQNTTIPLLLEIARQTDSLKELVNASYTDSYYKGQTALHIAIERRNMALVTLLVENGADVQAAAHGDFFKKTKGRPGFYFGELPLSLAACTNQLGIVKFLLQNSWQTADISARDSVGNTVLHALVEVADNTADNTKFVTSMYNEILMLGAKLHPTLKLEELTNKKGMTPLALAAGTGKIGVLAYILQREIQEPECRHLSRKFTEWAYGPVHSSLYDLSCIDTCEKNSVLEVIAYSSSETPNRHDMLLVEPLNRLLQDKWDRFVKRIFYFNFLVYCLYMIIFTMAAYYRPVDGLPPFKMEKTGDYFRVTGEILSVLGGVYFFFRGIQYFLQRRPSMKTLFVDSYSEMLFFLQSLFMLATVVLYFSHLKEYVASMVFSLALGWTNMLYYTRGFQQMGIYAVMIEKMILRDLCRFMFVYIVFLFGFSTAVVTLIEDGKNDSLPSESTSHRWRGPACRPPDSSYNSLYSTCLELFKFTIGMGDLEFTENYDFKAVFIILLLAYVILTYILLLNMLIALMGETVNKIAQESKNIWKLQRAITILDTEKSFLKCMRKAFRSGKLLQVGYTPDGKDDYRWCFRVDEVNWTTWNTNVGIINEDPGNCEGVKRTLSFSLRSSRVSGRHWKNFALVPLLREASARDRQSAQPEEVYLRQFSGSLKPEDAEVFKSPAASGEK", "details": "cited from earlier work"}, "TRPM8": {"target": "TRPM8 (Homo sapiens, UniProt Q7Z2W7)", "sequence (Q7Z2W7 whole entry, species assumed)": "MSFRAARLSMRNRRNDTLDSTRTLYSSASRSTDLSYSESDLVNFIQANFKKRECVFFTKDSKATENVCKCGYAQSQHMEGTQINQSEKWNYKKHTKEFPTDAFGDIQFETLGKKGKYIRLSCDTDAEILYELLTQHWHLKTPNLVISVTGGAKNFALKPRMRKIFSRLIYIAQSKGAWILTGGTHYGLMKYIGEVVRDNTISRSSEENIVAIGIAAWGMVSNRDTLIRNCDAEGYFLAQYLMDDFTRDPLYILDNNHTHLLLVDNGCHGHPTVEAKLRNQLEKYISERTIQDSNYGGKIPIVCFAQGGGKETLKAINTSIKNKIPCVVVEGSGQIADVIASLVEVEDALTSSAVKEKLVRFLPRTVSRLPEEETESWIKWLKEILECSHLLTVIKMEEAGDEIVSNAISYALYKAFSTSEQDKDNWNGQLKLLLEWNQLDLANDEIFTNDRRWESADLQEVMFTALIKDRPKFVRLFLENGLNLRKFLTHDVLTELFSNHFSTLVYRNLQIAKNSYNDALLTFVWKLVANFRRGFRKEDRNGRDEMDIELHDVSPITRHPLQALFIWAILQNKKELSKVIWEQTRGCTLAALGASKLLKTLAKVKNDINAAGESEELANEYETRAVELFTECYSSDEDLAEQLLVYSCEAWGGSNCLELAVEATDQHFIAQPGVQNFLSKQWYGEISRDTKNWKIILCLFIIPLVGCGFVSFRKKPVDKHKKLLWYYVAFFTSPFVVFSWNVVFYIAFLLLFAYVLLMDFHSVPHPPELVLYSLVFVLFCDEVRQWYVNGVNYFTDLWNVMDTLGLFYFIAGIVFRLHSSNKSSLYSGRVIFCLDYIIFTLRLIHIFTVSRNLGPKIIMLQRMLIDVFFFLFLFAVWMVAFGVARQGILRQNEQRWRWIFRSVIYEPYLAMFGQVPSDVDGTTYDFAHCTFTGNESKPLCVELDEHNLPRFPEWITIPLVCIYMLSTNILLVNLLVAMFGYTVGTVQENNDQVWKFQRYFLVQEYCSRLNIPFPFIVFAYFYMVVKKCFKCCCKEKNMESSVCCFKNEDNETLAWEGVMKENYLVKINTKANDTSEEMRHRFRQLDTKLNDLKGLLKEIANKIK", "details": "cited from earlier work"}, "[2]": {"details": "oral administration; cited from earlier work"}}, "data": [{"molecule": "zinc", "values": [{"measurement": "concentration of zinc required for the synergy with cinnamaldehyde on TRPA1", "setting": "[1]; in vitro", "value": "< 1", "unit": "µM"}]}, {"molecule": "O=CC=Cc1ccccc1", "note": "[cinnamaldehyde]", "values": [{"measurement": "efficacy on hTRPA1 according to dose-response curve", "setting": "[1]; positive control C+, CHO cells", "value": "maximum efficacy"}, {"measurement": "EC50", "setting": "TRPA1", "value": "~10", "unit": "µM"}, {"measurement": "activation of TRPV1", "setting": "TRPV1", "value": "not TRPV1"}, {"measurement": "activation of TRPM8", "setting": "TRPM8", "value": "not TRPV1 or TRPM8"}]}, {"molecule": "COc1cc(CNC(=O)CCCC/C=C/C(C)C)ccc1O", "note": "[capsaicin]", "values": [{"measurement": "promotion of swallow reflex", "setting": "[2]", "value": "shown to promote a swallow reflex"}]}]}
